Results as given in ChEMBL document CHEMBL4819085, “Dipyridyl-substituted thiosemicarbazone as a potent broad-spectrum inhibitor of metallo-β-lactamases” (Bioorg Med Chem, 2021).
pIC50, pKi: −log10 of the molar value. In brackets after ≈: the same amount, converted by molar mass. Activity calls are given as the source filed them. The rule behind the calls is not given here.

How the values were obtained:
Escherichia coli [1] = test: Antibacterial activity against Escherichia coli producing ImiS assessed as fractional inhibitory concentration index incubated for 24 hrs in presence of meropenem by checkerboard assay; assay type: functional
Escherichia coli [2] = test: Potentiation of meropenem-induced antibacterial activity against Escherichia coli 01 assessed as meropenem MIC incubated for 24 hrs by broth microdilution method; assay type: functional
Escherichia coli [3] = test: Inhibition of Escherichia coli NDM-1 assessed as potentiation of meropenem-induced antibacterial activity by measuring fold reduction in meropenem MIC up to 8 ug/ml incubated for 24 hrs by broth microdilution method relative to meropenem alone; conditions: dose microg/ml <=8, time 24.0 hrs
Bacteria [4] = test: Reversible inhibition of bacterial NDM-1 assessed as enzyme activity at 50 uM incubated for 6 hrs by ICP-MS analysis
[5] = biological target: Metallo-beta-lactamase type 2 (Klebsiella pneumoniae, UniProt C7C422); test: Inhibition of NDM-1 in Klebsiella pneumoniae using meropenem as substrate incubated for 0.5 hrs
Sequence of Metallo-beta-lactamase type 2 (C7C422 whole entry): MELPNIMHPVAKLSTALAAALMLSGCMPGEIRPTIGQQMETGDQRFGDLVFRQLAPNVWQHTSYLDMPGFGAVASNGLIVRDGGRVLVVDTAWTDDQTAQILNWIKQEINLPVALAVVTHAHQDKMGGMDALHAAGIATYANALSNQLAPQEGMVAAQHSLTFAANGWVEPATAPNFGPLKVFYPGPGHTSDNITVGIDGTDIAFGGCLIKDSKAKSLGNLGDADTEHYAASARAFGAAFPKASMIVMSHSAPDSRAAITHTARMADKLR

Escherichia coli [6] = test: Inhibition of Escherichia coli L1 assessed as potentiation of meropenem-induced antibacterial activity by measuring meropenem MIC incubated for 24 hrs by broth microdilution method
Escherichia coli [7] = test: Inhibition of Escherichia coli NDM-1 assessed as bacterial growth rate in presence of ZnCl2 relative to control; set-up: scale not given: the % may be the effect or the level left
Escherichia coli [8] = test: Potentiation of meropenem-induced antibacterial activity against Escherichia coli 04 assessed as meropenem MIC incubated for 24 hrs by broth microdilution method; assay type: functional
Escherichia coli [9] = test: Antibacterial activity against Escherichia coli 04 assessed as reduction in bacterial growth incubated for 24 hrs by broth microdilution method; assay type: functional
Escherichia coli [10] = test: Antibacterial activity against Escherichia coli 24 assessed as reduction in bacterial growth incubated for 24 hrs by broth microdilution method; assay type: functional
Escherichia coli [11] = test: Inhibition of Escherichia coli ImiS assessed as potentiation of meropenem-induced antibacterial activity by measuring fold reduction in meropenem MIC up to 8 ug/ml incubated for 24 hrs by broth microdilution method relative to meropenem alone; conditions: dose microg/ml <=8, time 24.0 hrs
[12] = biological target: Metallo-beta-lactamase (Escherichia coli) (UniProt Q5U7L7); test: Inhibition of Escherichia coli VIM-2 assessed as potentiation of meropenem-induced antibacterial activity by measuring meropenem MIC incubated for 24 hrs by broth microdilution method
Escherichia coli [13] = test: Inhibition of Escherichia coli IMP-1 assessed as potentiation of meropenem-induced antibacterial activity by measuring meropenem MIC incubated for 24 hrs by broth microdilution method
Klebsiella pneumoniae [14] = test: In vivo antibacterial activity against Klebsiella pneumoniae producing NDM-1 infected in mouse assessed as reduction in bacterial load in liver at 2 mg/kg, ip in presence of meropenem; assay type: functional, organism-based
Escherichia coli [15] = test: Potentiation of meropenem-induced antibacterial activity against Escherichia coli 06 assessed as meropenem MIC incubated for 24 hrs by broth microdilution method; assay type: functional
Escherichia coli [16] = test: Antibacterial activity against Escherichia coli producing NDM-1 assessed as fractional inhibitory concentration index incubated for 24 hrs in presence of meropenem by checkerboard assay; assay type: functional
[17] = Cytotoxicity against African green monkey Vero E6 cells assessed as cell viability at 50 uM relative to control; assay type: cell-based, Vero C1008; conditions: chlorocebus sabaeus, read-out: Activity
Klebsiella pneumoniae [18] = test: Antibacterial activity against Klebsiella pneumoniae assessed as reduction in bacterial growth incubated for 24 hrs by broth microdilution method; assay type: functional
Escherichia coli [19] = test: Bactericidal activity against Escherichia coli producing NDM-1 assessed as reduction in bacterial viability at 4 ug/ml in presence of meropenem incubated for 12 hrs by time kill assay; assay type: functional, organism-based; conditions: dose 4.0 µg/ml
Escherichia coli [20] = test: Inhibition of Escherichia coli NDM-1 assessed as synergistic antibacterial activity at 4 ug/ml in presence of meropenem; conditions: dose 4.0 µg/ml
Bacteria [21] = test: Inhibition of bacterial IMP-1 at 20 uM using meropenem as substrate incubated for 1 hr by spectrometry analysis relative to control
[22] = (§1) Inhibition of bacterial ImiS expressed in Escherichia coli BL21 (DE3) using meropenem as substrate incubated for 1 hr by spectrometry analysis; set-up: species or system Bacteria
Bacteria [23] = test: as §1
Klebsiella pneumoniae [24] = test: Potentiation of meropenem-induced antibacterial activity against Klebsiella pneumoniae assessed as meropenem MIC incubated for 24 hrs by broth microdilution method; assay type: functional
[25] = (§2) Inhibition of bacterial VIM-2 expressed in Escherichia coli BL21 (DE3) using meropenem as substrate incubated for 1 hr by spectrometry analysis; set-up: species or system Bacteria
Bacteria [26] = test: as §2
[27] = Competitive inhibition of bacterial NDM-1 expressed in Escherichia coli BL21 (DE3) using meropenem as substrate incubated for 1 hr by Lineweaver-Burk plot analysis; set-up: species or system Bacteria
Escherichia coli [28] = test: Potentiation of meropenem-induced antibacterial activity against Escherichia coli 01 assessed as fold reduction in meropenem MIC incubated for 24 hrs by broth microdilution method relative to meropenem alone; assay type: functional
Escherichia coli [29] = test: Potentiation of meropenem-induced antibacterial activity against Escherichia coli 24 assessed as meropenem MIC incubated for 24 hrs by broth microdilution method; assay type: functional
[30] = (§3) Inhibition of bacterial IMP-1 using meropenem as substrate incubated for 1 hr by spectrometry analysis; set-up: species or system Bacteria
Bacteria [31] = test: as §3
Enterococcus faecium = test: Antibacterial activity against vancomycin-resistant Enterococcus faecium assessed as reduction in bacterial growth incubated for 24 hrs by broth microdilution method; assay type: functional
[32] = Binding affinity to Zn2+ ion assessed as UV absorption peak at 435 nm at 50 uM incubated for 5 mins in presence of ZnCl2 by spectrometry analysis
Bacteria [33] = test: Inhibition of bacterial VIM-2 expressed in Escherichia coli BL21 (DE3) at 20 uM using meropenem as substrate incubated for 1 hr by spectrometry analysis relative to control
Escherichia coli [34] = test: Antibacterial activity against Escherichia coli 06 assessed as reduction in bacterial growth incubated for 24 hrs by broth microdilution method; assay type: functional
Klebsiella pneumoniae [35] = test: In vivo antibacterial activity against Klebsiella pneumoniae producing NDM-1 infected in mouse assessed as reduction in bacterial load in spleen at 2 mg/kg, ip in presence of meropenem; assay type: functional, organism-based
Escherichia coli [36] = test: Antibacterial activity against Escherichia coli producing IMP-1 assessed as fractional inhibitory concentration index incubated for 24 hrs in presence of meropenem by checkerboard assay; assay type: functional, organism-based
Pseudomonas aeruginosa = test: Antibacterial activity against Carbapenem-resistant Pseudomonas aeruginosa assessed as reduction in bacterial growth incubated for 24 hrs by broth microdilution method; assay type: functional
Klebsiella pneumoniae [37] = test: Potentiation of meropenem-induced antibacterial activity against Klebsiella pneumoniae assessed as fold reduction in meropenem MIC incubated for 24 hrs by broth microdilution method relative to meropenem alone; assay type: functional
[38] = biological target: Metallo-beta-lactamase (Escherichia coli) (UniProt Q5U7L7); test: Inhibition of Escherichia coli VIM-2 assessed as potentiation of meropenem-induced antibacterial activity by measuring fold reduction in meropenem MIC up to 8 ug/ml incubated for 24 hrs by broth microdilution method relative to meropenem alone; conditions: dose microg/ml <=8, time 24.0 hrs
Escherichia coli [39] = test: Inhibition of Escherichia coli NDM-1 assessed as potentiation of meropenem-induced antibacterial activity by measuring meropenem MIC incubated for 24 hrs by broth microdilution method
Bacteria [40] = test: Inhibition of bacterial NDM-1 expressed in Escherichia coli BL21 (DE3) at 20 uM using meropenem as substrate incubated for 1 hr by spectrometry analysis relative to control
Escherichia coli [41] = test: Antibacterial activity against Escherichia coli producing VIM-2 assessed as fractional inhibitory concentration index incubated for 24 hrs in presence of meropenem by checkerboard assay; assay type: functional

CN(C(=S)NN=C(c1ccccn1)c1ccccn1)C1CCCCC1
FIC (Escherichia coli [1]): 0.313
MIC (Escherichia coli [2]): 32 µg/mL
fold change (FC) (Escherichia coli [3]): 256
inhibition (Bacteria [4]): Active
pIC50 [5]: 4.87
MIC (Escherichia coli [6]): 32 µg/mL
Activity (Escherichia coli [7]): 90%
MIC (Escherichia coli [8]): 16 µg/mL
MIC (Escherichia coli [9]): 16 µg/mL (≈ 45.3 µM)
MIC (Escherichia coli [10]): 16 µg/mL (≈ 45.3 µM)
fold change (FC) (Escherichia coli [11]): 64
MIC [12]: 8 µg/mL
MIC (Escherichia coli [13]): 16 µg/mL
inhibition (Klebsiella pneumoniae [14]): Active
MIC (Escherichia coli [15]): 64 µg/mL
FIC (Escherichia coli [16]): 0.313
viability at 50 µM [17]: > 70%
MIC (Klebsiella pneumoniae [18]): 32 µg/mL (≈ 90.5 µM)
inhibition (Escherichia coli [19]): Active
inhibition (Escherichia coli [20]): Active
inhibition (Bacteria [21]): > 90%
pIC50 [22]: 7.12
inhibition (Bacteria [23]): Dose-Dependent Effect
MIC (Klebsiella pneumoniae [24]): 32 µg/mL
pIC50 [25]: 6.96
inhibition (Bacteria [26]): Dose-Dependent Effect
pKi [27]: 7.99
fold change (FC) (Escherichia coli [28]): 2
MIC (Escherichia coli [29]): 16 µg/mL
pIC50 [30]: 6.55
inhibition (Bacteria [31]): Dose-Dependent Effect
MIC (Enterococcus faecium): 16 µg/mL (≈ 45.3 µM)
Activity [32]: Active
inhibition (Bacteria [33]): > 90%
MIC (Escherichia coli [34]): 16 µg/mL (≈ 45.3 µM)
inhibition (Klebsiella pneumoniae [35]): Active
Activity (Escherichia coli [36]): inactive
MIC (Pseudomonas aeruginosa): 16 µg/mL (≈ 45.3 µM)
fold change (FC) (Klebsiella pneumoniae [37]): 8
fold change (FC) [38]: 32
MIC (Escherichia coli [39]): 8 µg/mL
inhibition (Bacteria [40]): > 90%
FIC (Escherichia coli [41]): 0.313
